Source: US7772425B2, “Vitamin D receptor modulators” (Eli Lilly and Company, priority 2002, dated 2010)

System: rat osteocalcin promoter
Test: OCN (osteocalcin) promoter assay in RG-15 (ROS 17/2.8) cells
Format: cell-based
Conditions: 48 hr treatment, luciferase
Description: 3. The OCN (Osteocalcin) Promoter Assay
The OCN Promoter Assay is an indicator and marker for osteoporosis. […] Preferred assay results are less than 50 nM.
(3) Materials and Method for The OCN Promoter Assay:
The activation of osteocalcin by VDR ligands was evaluated in a rat osteoblast-like cell line RG-15 (ROS 17/2.8) stably expressing rat osteocalcin promoter fused with luciferase reporter gene. […] Confluent RG-15 cells maintained in DMEM/F-12 medium (3:1) containing 5% FBS, 300 μg/ml G418 and at 37° C. under 5% CO2/95% air atmosphere were trypsinized (0.25% trypsin) and plated into white opaque 96-well cell culture plates (25000 cells/well). After 24 hr, cells (in DMEM/F-12 medium+2% FBS) were treated with various concentrations of compounds, dissolved in DMSO. The final DMSO concentration remained at 0.01% (v/v). After 48 hr treatment, the medium was removed, cells were lysed with 50 μl of lysis buffer (From Luciferase reporter assay system, Roche Diagnostics, Indianapolis, Ind.) and assayed for luciferase activity using the Luciferase Reporter Gene Assay kit from Boehringer Mannheim as per manufacturer's specifications.

Row | SMILES | EC50
1 | CCC(CC)(c1ccc(OCC(O)C(C)(C)C)c(Cl)c1)c1ccc(C(=O)O)c(Cl)c1 (single isomer, unassigned) [Ex. 41, 3′-[3-chloro-4-(2-hydroxy-3,3-dimethyl-butoxy)phenyl]-3′-(3-chloro-4-carboxyphenyl)pentane] | 0.421 µM
2 | CCC(CC)(c1ccc(OCC(O)C(C)(C)C)c(C)c1)c1ccc(C(=O)OC)c(C)c1 (single isomer, unassigned) [Ex. 4A, 3′-[4-(2-hydroxy-3,3-dimethylbutoxy)-3-methylphenyl]-3′-[4-methoxycarbonyl-3-methylphenyl]pentane] | 0.003 µM
3 | CCC(CC)(c1ccc(OCC(O)C(C)(C)C)c(C)c1)c1ccc(C(=O)NCCS(C)(=O)=O)c(C)c1 (single isomer, unassigned) [Ex. 15B, 4-{1-ethyl-1-[4-(2-hydroxy-3,3-dimethylbutoxy)-3-methylphenyl]propyl}-N-(2-methanesulfonylethyl)-2-methylbenzamide] | 0.163 µM
4 | CCC(CC)(c1ccc(OCC(O)C(C)(C)C)c(C)c1)c1ccc(C(=O)OC)c(C)c1 (single isomer, unassigned) [Ex. 4B, 3′-[4-(2-hydroxy-3,3-dimethylbutoxy)-3-methylphenyl]-3′-[4-methoxycarbonyl-3-methylphenyl]pentane] | 0.015 µM

Same assay, conditions: Rattus norvegicus, 48 h, 48 hr treatment, luciferase

Row | SMILES | EC50
5 | CCC(CC)(c1ccc(OCC(O)C(C)(C)C)c(C)c1)c1ccc(C(=O)OC)c(C)c1 (racemic) [Ex. 1, 3′-[4-(2-hydroxy-3,3-dimethylbutoxy)-3-methylphenyl]-3′-[4-methoxycarbonyl-3-methylphenyl]pentane] | 0.021 µM
6 | CCC(CC)(c1ccc(C(=O)O)c(C)c1)c1ccc(OCC(O)C(C)(C)C)c(Cl)c1 (racemic) [Ex. 38, 3′-[3-chloro-4-(2-hydroxy-3,3-dimethylbutoxy)phenyl]-3′-[3-methyl-4-(carboxy)phenyl]pentane] | 0.041 µM
7 | Cc1cc(C2(c3ccc(OCC(=O)C(C)(C)C)c(C)c3)CCCCC2)ccc1OCC(=O)C(C)(C)C [CC, 1-(4-{1-[4-(3,3-Dimethyl-2-oxo-butoxy)-3-methyl-phenyl]-cyclohexyl}-2-methyl-phenoxy)-3,3-dimethyl-butan-2-one, reference compound] | > 1 µM
8 | CCC(CC)(c1ccc(OCC(=O)C(C)(C)C)c(C)c1)c1ccc(C(=O)NCCS(C)(=O)=O)c(C)c1 [Ex. 16, 4-{1-[4-(3,3-dimethyl-2-oxobutoxy)-3-methylphenyl]-1-ethylpropyl}-N-(2-methanesulfonylethyl)-2-methylbenzamide] | 0.035 µM
9 | CCC(CC)(c1ccc(OC[C@@H](O)C(C)(C)C)c(C)c1)c1ccc(C(=O)NCC(=O)O)c(C)c1 (stereo in doubt) [Ex. 24, (4-{1-ethyl-1-[4-(2-hydroxy-3,3-dimethylbutoxy)-3-methylphenyl]-propyl}-2-methylbenzoylamino)acetic acid] | 0.0002 µM
10 | CCC(CC)(c1ccc(OC[C@@H](O)C(C)(C)C)c(C)c1)c1ccc(C(=O)NCCS(C)(=O)=O)c(C)c1 (stereo in doubt) [Ex. 14, 4-{1-ethyl-1-[4-(2-hydroxy-3,3-dimethylbutoxy)-3-methylphenyl]propyl}-N-(2-methanesulfonylethyl)-2-methylbenzamide] | 0.306 µM
11 | CCC(CC)(c1ccc(CCC(O)C(C)(C)C)c(C)c1)c1ccc(C(=O)O)c(C)c1 (racemic) [Ex. 55, 3′-[4-(3-hydroxy-4,4-dimethylpentyl)-3-methylphenyl]-3′-[4-carboxyl-3-methylphenyl]pentane] | 0.006 µM

System: female DBF mice
Test: Mouse hypercalcemia assay
Format: in vivo
Conditions: orally via gavage for 6 days; serum ionized calcium 6 hours after last dosing
Source text: 4. The Mouse Hypercalcemia Assay
(4) Materials and Method for The Mouse Hypercalcemia Assay: […]

Row | SMILES | Mouse Hypercal
12 | CCC(CC)(c1ccc(OCC(O)CO)c(C)c1)c1ccc(OCC(O)C(C)(C)C)c(C)c1 (stereo not drawn) [BB, 3-(4-{1-Ethyl-1-[4-(2-hydroxy-3,3-dimethyl-butoxy)-3-methyl-phenyl]-propyl}-2-methyl-phenoxy)-propane-1,2-diol, reference compound] | 20 µg/kg/day
13 | CCC(CC)(c1ccc(OCC(=O)C(C)(C)C)c(C)c1)c1ccc(C(=O)NCCS(C)(=O)=O)c(C)c1 [Ex. 16, 4-{1-[4-(3,3-dimethyl-2-oxobutoxy)-3-methylphenyl]-1-ethylpropyl}-N-(2-methanesulfonylethyl)-2-methylbenzamide] | >5000 µg/kg/day
14 | CCC(CC)(c1ccc(OC[C@@H](O)C(C)(C)C)c(C)c1)c1ccc(C(=O)NCCS(C)(=O)=O)c(C)c1 (stereo in doubt) [Ex. 14, 4-{1-ethyl-1-[4-(2-hydroxy-3,3-dimethylbutoxy)-3-methylphenyl]propyl}-N-(2-methanesulfonylethyl)-2-methylbenzamide] | 3000 µg/kg/day
15 | C=C1/C(=C\C=C2/CCC[C@]3(C)[C@@H]([C@H](C)CCCC(C)(C)O)CC[C@@H]23)C[C@@H](O)C[C@@H]1O [AA, 1α,25-dihydroxyvitamin D3, reference compound] | 0.06 µg/kg/day
